Columns and labels:
[1] = Ratio of drug level in tumor to muscle in KM mouse xenografted with human HCT-116 cells measured after 1 hr block group; format: ADME, tissue-based
[2] = Drug uptake in human MCF7 cells measured after 1 hr; format: ADME, cell-based; settings: mcf7, 1 h
[3] = Drug accumulation in small intestine of KM mouse measured after 2 hrs; format: ADME, tissue-based; settings: read-out: Drug uptake
[4] = Drug distribution in KM mouse kidney xenografted with human HCT-116 cells measured after 1 hr block group; format: ADME, tissue-based; settings: read-out: Drug uptake
[5] = Drug uptake in KM mouse intestine xenografted with human HCT-116 cells measured after 80 mins by PET imaging based analysis; format: ADME, tissue-based; settings: 1.333 h
[6] = Drug accumulation in liver of KM mouse measured after 10 mins; format: ADME, tissue-based; settings: read-out: Drug uptake
[7] = Ratio of drug level in tumor to muscle in KM mouse xenografted with human HCT-116 cells measured after 1 hr; format: ADME, tissue-based
[8] = Retention time of the compound; format: physicochemical
[9] = Drug distribution in KM mouse pancreas xenografted with human HCT-116 cells measured after 1 hr block group; format: ADME, tissue-based; settings: read-out: Drug uptake
[10] = Drug distribution in KM mouse stomach xenografted with human HCT-116 cells measured after 1 hr block group; format: ADME, tissue-based; settings: read-out: Drug uptake
[11] = Ratio of drug level in tumor to blood in KM mouse xenografted with human HCT-116 cells measured after 1 hr block group; format: ADME, tissue-based
[12] = Drug accumulation in bone of KM mouse measured after 2 hrs; format: ADME, tissue-based, Bone element; settings: read-out: Drug uptake
[13] = Drug distribution in KM mouse tumor xenografted with HCT-116 cells measured after 1 hr; format: ADME, tissue-based, Neoplasm; settings: read-out: Drug uptake
[14] = Drug distribution in KM mouse stomach xenografted with human HCT-116 cells measured after 1 hr; format: ADME, tissue-based; settings: read-out: Drug uptake
[15] = Drug distribution in KM mouse bone xenografted with human HCT-116 cells measured after 1 hr; format: ADME, tissue-based, Bone element; settings: read-out: Drug uptake
[16] = Drug uptake in human HCT-15 cells measured after 30 mins in presence of 2-(4-bromophenyl)-4-(2-(2-(2-fluoroethoxy)ethoxy)ethoxy)quinazoline; format: ADME, cell-based; settings: hct-15, 0.5 h
[17] = Drug distribution in KM mouse brain xenografted with human HCT-116 cells measured after 1 hr; format: ADME, tissue-based; settings: read-out: Drug uptake
[18] = Drug distribution in KM mouse lung xenografted with human HCT-116 cells measured after 1 hr; format: ADME, tissue-based; settings: read-out: Drug uptake
[19] = Drug uptake in human HCT-15 cells measured after 1 hr; format: ADME, cell-based; settings: hct-15, 1 h
[20] = Drug distribution in KM mouse brain xenografted with human HCT-116 cells measured after 1 hr block group; format: ADME, tissue-based; settings: read-out: Drug uptake
[21] = Drug distribution in KM mouse heart xenografted with human HCT-116 cells measured after 1 hr block group; format: ADME, tissue-based; settings: read-out: Drug uptake
[22] = Drug distribution in KM mouse kidney xenografted with human HCT-116 cells measured after 1 hr; format: ADME, tissue-based; settings: read-out: Drug uptake
[23] = Drug uptake in human MCF7 cells measured after 30 mins in presence of 2-(4-bromophenyl)-4-(2-(2-(2-fluoroethoxy)ethoxy)ethoxy)quinazoline; format: ADME, cell-based; settings: mcf7, 0.5 h
[24] = Drug uptake in mouse liver measured after 10 mins; format: ADME, tissue-based; settings: in vivo
[25] = Drug uptake in human HCT-116 cells measured after 30 mins; format: ADME, cell-based; settings: hct-116, 0.5 h
[26] = Drug distribution in KM mouse spleen xenografted with human HCT-116 cells measured after 1 hr; format: ADME, tissue-based; settings: read-out: Drug uptake
[27] = Drug distribution in KM mouse blood xenografted with human HCT-116 cells measured after 1 hr; format: ADME, tissue-based; settings: read-out: Drug uptake
[28] = Drug uptake in human HCT-116 cells at 10 nM measured after 30 min; format: ADME, cell-based; settings: hct-116, 0.5 h, 0.01 µM
[29] = Drug accumulation in brain of KM mouse measured after 10 mins; format: ADME, tissue-based; settings: read-out: Drug uptake
[30] = Drug distribution in KM mouse bone xenografted with human HCT-116 cells measured after 1 hr block group; format: ADME, tissue-based, Bone element; settings: read-out: Drug uptake
[31] = Drug distribution in KM mouse heart xenografted with human HCT-116 cells measured after 1 hr; format: ADME, tissue-based; settings: read-out: Drug uptake
[32] = Drug distribution in KM mouse lung xenografted with human HCT-116 cells measured after 1 hr block group; format: ADME, tissue-based; settings: read-out: Drug uptake
[33] = Drug distribution in KM mouse intestine xenografted with human HCT-116 cells measured after 1 hr; format: ADME, tissue-based; settings: read-out: Drug uptake
[34] = Ratio of drug level in tumor to blood in KM mouse xenografted with human HCT-116 cells measured after 1 hr; format: ADME, tissue-based
[35] = Drug accumulation in heart of KM mouse measured after 10 mins; format: ADME, tissue-based; settings: in vivo
[36] = Drug uptake in KM mouse liver xenografted with human HCT-116 cells measured after 40 to 60 mins by PET imaging based analysis; format: ADME, tissue-based; settings: time 40-60 min
[37] = Stability of compound in PBS assessed as compound remaining measure after 1 to 2 hrs; format: physicochemical; settings: buffer; time 1-2 hrs
[38] = Drug distribution in KM mouse pancreas xenografted with human HCT-116 cells measured after 1 hr; format: ADME, tissue-based; settings: read-out: Drug uptake
[39] = Drug distribution in KM mouse liver xenografted with human HCT-116 cells measured after 1 hr; format: ADME, tissue-based; settings: read-out: Drug uptake
[40] = Drug accumulation in blood of KM mouse measured after 2 hrs; format: ADME, tissue-based; settings: read-out: Drug uptake
[41] = Drug distribution in KM mouse liver xenografted with human HCT-116 cells measured after 1 hr block group; format: ADME, tissue-based; settings: read-out: Drug uptake
[42] = Drug distribution in KM mouse spleen xenografted with human HCT-116 cells measured after 1 hr block group; format: ADME, tissue-based; settings: read-out: Drug uptake
[43] = Drug distribution in KM mouse tumor xenografted with human HCT-116 cells measured after 1 hr block group; format: ADME, tissue-based, Neoplasm; settings: read-out: Drug uptake
[44] = Drug distribution in KM mouse muscle xenografted with human HCT-116 cells measured after 1 hr; format: ADME, tissue-based, Muscle tissue; settings: read-out: Drug uptake
[45] = Drug distribution in KM mouse muscle xenografted with human HCT-116 cells measured after 1 hr block group; format: ADME, tissue-based, Muscle tissue; settings: read-out: Drug uptake
[46] = Drug distribution in KM mouse blood xenografted with human HCT-116 cells measured after 1 hr block group; format: ADME, tissue-based; settings: read-out: Drug uptake
[47] = Lipophilicity, logP of compound; format: physicochemical; settings: octanol/water
[48] = Drug uptake in mouse liver measured after 60 min; format: ADME, tissue-based; settings: in vivo, 1 h
[49] = Drug distribution in KM mouse intestine xenografted with human HCT-116 cells measured after 1 hrs block group; format: ADME, tissue-based; settings: read-out: Drug uptake
[50] = Stability of compound in mouse plasma assessed as compound remaining measured after 1 to 2 hrs; format: ADME, cell-free; settings: time 1-2 hrs
[51] = Drug accumulation in intestine of KM mouse measured after 30 mins; format: ADME, tissue-based; settings: read-out: Drug uptake
[52] = Drug uptake in KM mouse gastrointestinal tract xenografted with human HCT-116 cells measured after 40 to 60 mins by PET imaging based analysis; format: ADME, tissue-based; settings: time 40-60 min

For [18F]CCOCCOCCOc1nc(-c2ccc(Br)cc2)nc2ccccc12, the Ratio [1] was 0.79, the Drug uptake [2] was 25.26% and the tissue uptake at 2 h [3] was 8.37 %ID/g. For the same compound, the tissue uptake at 1 h [4] was 7.65 %ID/g, the Drug uptake [5] was “Active” and the tissue uptake at 10 min [6] was 10.2 %ID/g. It also gave a Ratio [7] of 0.98, a Retention_time [8] of 2.97 min and a tissue uptake at 1 h [9] of 7.53 %ID/g. It also gave a tissue uptake at 1 h [10] of 1.6 %ID/g, a Kp at 1 h [11] of 1.01 and a tissue uptake at 2 h [12] of 5.62 %ID/g. It also gave a tissue uptake at 1 h [13] of 4.76 %ID/g, a tissue uptake at 1 h [14] of 1.75 %ID/g and a tissue uptake at 1 h [15] of 2.81 %ID/g. The Drug uptake [16] was 18.35%, the tissue uptake at 1 h [17] was 7.34 %ID/g and the tissue uptake at 1 h [18] was 5.66 %ID/g. It also gave a Drug uptake [19] of 25.61%, a tissue uptake at 1 h [20] of 6.56 %ID/g and a tissue uptake at 1 h [21] of 5.23 %ID/g. It also gave a tissue uptake at 1 h [22] of 8.49 %ID/g, a Drug uptake [23] of 13.62% and a Drug uptake [24] of 83.7%. It also gave a Drug uptake [25] of 35.27%, a tissue uptake at 1 h [26] of 6.45 %ID/g and a tissue uptake at 1 h [27] of 4.15 %ID/g. The Drug uptake [28] was 23.64%, the tissue uptake at 10 min [29] was 7.94 %ID/g and the tissue uptake at 1 h [30] was 2.44 %ID/g. For the same compound, the tissue uptake at 1 h [31] was 6.4 %ID/g, the tissue uptake at 1 h [32] was 5.42 %ID/g and the tissue uptake at 1 h [33] was 8.84 %ID/g. The Kp at 1 h [34] was 1.16, the Drug uptake [35] was “Active” and the Drug uptake [36] was “Active”. For the same compound, the Stability [37] was over 90%, the tissue uptake at 1 h [38] was 8.21 %ID/g and the tissue uptake at 1 h [39] was 9.99 %ID/g. The tissue uptake at 2 h [40] was 3.97 %ID/g, the tissue uptake at 1 h [41] was 9.5 %ID/g and the tissue uptake at 1 h [42] was 5.62 %ID/g. It also gave a tissue uptake at 1 h [43] of 3.31 %ID/g, a tissue uptake at 1 h [44] of 4.92 %ID/g and a tissue uptake at 1 h [45] of 4.2 %ID/g. It also gave a tissue uptake at 1 h [46] of 3.3 %ID/g, a logP [47] of 3.88 and a Drug uptake [48] of 37.63%. The tissue uptake at 1 h [49] was 7.1 %ID/g, the Stability [50] was over 90% and the tissue uptake at 0.5 h [51] was 10.8 %ID/g. The Drug uptake [52] was “Active”.

— ChEMBL document CHEMBL5329194, “Design, Synthesis, and Evaluation of 18F-Labeling CYP1B1 PET Tracer Based on 2-Phenylquinazolin” (Bioorg Med Chem Lett, 2023)
